Results as given in patent US9789087B2, “PAR4 inhibitor therapy for patients with PAR4 polymorphism” (THOMAS JEFFERSON UNIVERSITY, priority 2015, dated 2017).
Numbering of substitutions follows the chain as printed. Entries after “also recorded” stand apart in the source; their conditions may differ.

Tests used:
PAR4 [1] = assay: PAR4-AP-induced platelet aggregation, light transmission aggregometry, donors genotyped for rs773902; format: cell-based, human; details: 100 μM PAR4-AP
Description: (§1) FIGS. 5A-5C show PAR4 variants are differentially susceptible to pharmacological inhibition. Platelets from donors genotyped for […] were washed, incubated with the indicated concentrations of vorapaxar (VPX) (FIGS. 5A, 5B) or YD-3 (FIG. 5C) and then stimulated with (FIG. 5A) 5 μM PAR1-AP or (FIGS. 5B, 5C) 100 μM PAR4-AP. Aggregation was measured using light transmission aggregometry. n=3 each genotype. Horizontal lines indicate mean. (P=0.02). […] Craig Lindsley at Vanderbilt University) as previously described.^27 Aggregation was then quantified after stimulation with 5 μM PAR1-AP or 100 μM PAR4-AP.

platelets [2] = details: cited from earlier work
smooth muscle cell = details: cited from earlier work
PAR4-Ala120 = biological target: T1, PAR4-Ala120 (Homo sapiens, UniProt Q96RI0); assay: PAR4-AP-induced platelet aggregation, platelets of PAR4-Ala120 homozygotes; format: cell-based; details: 0.5 μM YD-3, 100 μM PAR4-AP, FIG. 5C
T1 construct: endogenous in cells; host or cells: washed platelets of human donors homozygous for rs773902 G (Ala120)
T1 sequence (Q96RI0 18-385): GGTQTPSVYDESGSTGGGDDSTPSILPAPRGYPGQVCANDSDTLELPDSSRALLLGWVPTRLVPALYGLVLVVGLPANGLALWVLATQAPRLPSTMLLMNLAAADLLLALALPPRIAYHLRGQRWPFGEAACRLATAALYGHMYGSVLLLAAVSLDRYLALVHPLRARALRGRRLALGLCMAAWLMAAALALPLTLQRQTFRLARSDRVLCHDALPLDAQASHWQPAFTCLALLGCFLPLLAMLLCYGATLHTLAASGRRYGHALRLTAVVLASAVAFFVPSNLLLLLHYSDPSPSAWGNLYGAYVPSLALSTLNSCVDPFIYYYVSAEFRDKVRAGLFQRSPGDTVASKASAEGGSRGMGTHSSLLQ
Description: (§2) FIGS. 5A-5C show PAR4 variants are differentially susceptible to pharmacological inhibition. Platelets from donors genotyped for rs773902 were washed, incubated with the indicated concentrations of vorapaxar (VPX) (FIGS. 5A, 5B) or YD-3 (FIG. 5C) and then stimulated with (FIG. 5A) 5 μM PAR1-AP or (FIGS. 5B, 5C) 100 μM PAR4-AP. Aggregation was measured using light transmission aggregometry. n=3 each genotype. Horizontal lines indicate mean. (P=0.02).
(§3) Platelets were pre-incubated with the indicated concentrations of vorapaxar^26 (Axon Medchem, Reston, Va., USA) or YD-3 [1-benzyl-3-(ethoxycarbonylphenyl)-indazole]^7 (a gift from Dr. Craig Lindsley at Vanderbilt University) as previously described.^27 Aggregation was then quantified after stimulation with 5 μM PAR1-AP or 100 μM PAR4-AP.
(§4) Multiple linear regression analysis was performed including the PAR4 protein level and the risk SNPs as explanatory variables and PAR4 reactivity as the dependent variable. To determine fraction of variance of PAR4 reactivity explained by PAR4 protein levels and F2RL3 genotype, PAR4 protein level was brought into the model first followed by rs773902 genotype. To test for an interaction between rs773902 and YD-3, a linear regression was performed, using aggregation as the dependent variable and PAR4-AP concentration, YD3 concentration, and rs773902 genotype as […]. […]

platelets [3] = details: cited from earlier work; remark: listed apart in the source
PAR4-Thr120 = biological target: T2, PAR4-Thr120 (Homo sapiens, UniProt Q96RI0, A120T); assay: PAR4-AP-induced platelet aggregation, platelets of PAR4-Thr120 homozygotes; format: cell-based; details: homozygous PAR4-Thr120, up to 1 μM YD-3, 100 μM PAR4-AP, FIG. 5C
T2 construct: endogenous in cells; host or cells: washed platelets of human donors homozygous for rs773902 A (Thr120)
T2 sequence (Q96RI0 18-385 A120T): T1 sequence (Q96RI0 18-385) with A103T
Description: as §2, §3, §4

[4] = oral, rat carotid balloon injury; cited from earlier work
PAR4 [5] = biological target: T3, PAR4 (Homo sapiens, UniProt Q96RI0); details: cited from earlier work
T3 construct: host or cells: platelets (cited work)
T3 sequence (Q96RI0 18-385): T1 sequence (Q96RI0 18-385)

PAR1 = biological target: T4, PAR1 (Homo sapiens, UniProt P25116); assay: PAR1-AP-induced platelet aggregation, light transmission aggregometry; format: cell-based; details: washed platelets, 5 μM PAR1-AP, FIG. 5A
T4 construct: endogenous in cells; host or cells: washed platelets of healthy human donors (cohort 2)
T4 sequence (P25116 22-425): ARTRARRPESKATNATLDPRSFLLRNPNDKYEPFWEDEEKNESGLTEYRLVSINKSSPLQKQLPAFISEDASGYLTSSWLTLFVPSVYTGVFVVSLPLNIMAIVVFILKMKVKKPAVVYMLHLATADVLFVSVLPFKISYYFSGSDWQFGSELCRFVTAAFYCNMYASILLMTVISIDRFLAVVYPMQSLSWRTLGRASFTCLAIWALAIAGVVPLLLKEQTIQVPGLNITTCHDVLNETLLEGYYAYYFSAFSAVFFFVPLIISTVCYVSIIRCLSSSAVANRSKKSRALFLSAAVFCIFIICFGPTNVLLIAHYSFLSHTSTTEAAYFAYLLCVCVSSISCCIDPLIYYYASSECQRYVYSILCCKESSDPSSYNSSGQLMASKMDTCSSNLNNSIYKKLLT
Description: as §1, with “Platelets” for “FIGS. 5A-5C show PAR4 variants are differentially susceptible to pharmacological inhibition. Platelets”, “mean.” for “mean. (P=0.02).”

| SMILES | inhibition of PAR4-induced platelet aggregation (PAR4 [1]; rs773902 heterozygotes, FIG. 5C) | block of neutrophil-induced platelet aggregation (platelets [2]) | block of thrombin-induced smooth muscle cell proliferation (smooth muscle cell) | inhibition of PAR4-induced platelet aggregation (PAR4-Ala120) | block of thrombin-induced platelet recruitment (platelets [3]) | inhibition of PAR4-induced platelet aggregation (PAR4-Thr120) | intimal thickening [4] | block of PAR4-induced platelet aggregation (PAR4 [5]) | effect on PAR4-induced platelet aggregation (PAR4 [1]; washed platelets, regardless of rs773902 genotype, FIG. 5B) | inhibition of platelet aggregation through PAR1 (PAR1) |
| --- | --- | --- | --- | --- | --- | --- | --- | --- | --- | --- |
| CCOC(=O)c1ccc(-c2nn(Cc3ccccc3)c3ccccc23)cc1 [YD-3, ethyl 4-(1-benzyl-1H-indazol-3-yl)benzoate] | intermediate response | blocks | blocks | inhibited | blocks | resistant | attenuates | specifically blocks; also recorded: blocking | – | – |
| CCOC(=O)N[C@@H]1CC[C@@H]2[C@@H](C1)C[C@H]1C(=O)O[C@H](C)[C@H]1[C@H]2/C=C/c1ccc(-c2cccc(F)c2)cn1 [vorapaxar] | – | – | – | – | – | – | – | – | no effect | efficiently inhibited |
